This is an account of results in patent US20260325533A1, “CDK INHIBITOR COMPOUNDS” (ALEKSIA THERAPEUTICS, INC., priority 2023, published 2026).

Like-named read-outs stand apart in the source and are kept apart here. Some results are limits rather than exact numbers.

Common to all, as to format: biochemical
Test [1] has as its target CDK1/CCNB1 (Homo sapiens, UniProt P06493). The test is described as follows: CDK1 homogeneous time-resolved fluorescence (HTRF) kinase assay. The note with it: CDK1/CCNB. An outline of the steps:
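CDK1/CCNB1 0.5 nM + cpd, 20 min 23 °C; add 1 mM ATP, 50 nM ULight-4E-BP1 peptide, 60 min 23 °C; stop 10 mM EDTA; 2 nM Eu-Ab, 60 min; HTRF 665 nm. 11-pt half-log, top 10 μM typical; IC50.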

Test [2] addresses CDK2/CCNE1 (Homo sapiens, UniProt P24941). As to the kind of experiment: CDK2 homogeneous time-resolved fluorescence (HTRF) kinase assay. To be noted: CDK2/CCNE. In a few lines:
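Compounds were titrated 11-point, half-log from typically 10 μM against 3 nM CDK2/cyclin E1 at 1 mM ATP, with a 20 min enzyme preincubation. Phosphorylation of 50 nM ULight-4E-BP1 peptide over 60 min at 23 °C was detected by europium anti-phospho antibody TR-FRET.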
Background: Time-resolved FRET reads energy transfer from a long-lived donor to a nearby acceptor.

Test [3] has as its target CDK6/CCND1 (Homo sapiens, UniProt Q00534). As to the kind of experiment: CDK6 homogeneous time-resolved fluorescence (HTRF) kinase assay. The note with it: CDK6/CCND. An outline of the steps:
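Enzyme pre-incubated 20 min at 23 °C with compound, then reacted 60 min at 23 °C with 1 mM ATP and 50 nM ULight-4E-BP1 (Thr37/46) peptide; 1 nM enzyme, 1% DMSO. EDTA-stopped, Eu-anti-phospho antibody TR-FRET read (665 nm or 665/615 ratio); 11-point half-log titration from 10 μM gave IC50.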

The target in test [4] is CDK4/CCND3 (Homo sapiens, UniProt P11802). As to the kind of experiment: CDK4 homogeneous time-resolved fluorescence (HTRF) kinase assay. The note with it: CDK4/CCND. In a few lines:
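CDK4/CCND3 at 1.5 nM was preincubated with compound for 20 min at 23 °C, then reacted for 60 min with 1 mM ATP and 50 nM ULight-4E-BP1 (Thr37/46) peptide. The reaction was stopped with EDTA, and phosphorylation was read by HTRF with a Eu-anti-phospho antibody. IC50 values came from 11-point half-log titrations, typically from 10 μM.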

[5] abbreviates: x = IC50 >250 nM, read-out: CDK1/CCNB IC50 (>250 nM column).
[6] abbreviates: x = IC50 <25 nM, read-out: CDK2/CCNE IC50 (<25 nM).
The mark [7] stands for this setting: x = IC50 25-250 nM, read-out: CDK6/CCND IC50 (25-250 nM).
The mark [8] stands for this setting: x = IC50 >250 nM, read-out: CDK4/CCND IC50 (>250 nM column).
Setting [9] is: x = IC50 25-250 nM, read-out: CDK4/CCND IC50 (25-250 nM).
[10] abbreviates: x = IC50 >250 nM, read-out: CDK6/CCND IC50 (>250 nM column).
The mark [11] stands for this setting: >250 nM, read-out: CDK1/CCNB IC50 >250 nM.
Setting [12] is: <25 nM, read-out: CDK2/CCNE IC50, <25 nM.
The mark [13] stands for this setting: 25-250 nM, 1 mM ATP, read-out: CDK6/CCND IC50, 25-250 nM.
Where [14] appears, read: 25-250 nM, read-out: CDK4/CCND IC50, 25-250 nM.
[15] abbreviates: >250 nM, 1 mM ATP, read-out: CDK6/CCND IC50, >250 nM.
The mark [16] stands for this setting: >250 nM, read-out: CDK4/CCND IC50, >250 nM.

CDK6/CCND1, sequence (Q00534 whole entry): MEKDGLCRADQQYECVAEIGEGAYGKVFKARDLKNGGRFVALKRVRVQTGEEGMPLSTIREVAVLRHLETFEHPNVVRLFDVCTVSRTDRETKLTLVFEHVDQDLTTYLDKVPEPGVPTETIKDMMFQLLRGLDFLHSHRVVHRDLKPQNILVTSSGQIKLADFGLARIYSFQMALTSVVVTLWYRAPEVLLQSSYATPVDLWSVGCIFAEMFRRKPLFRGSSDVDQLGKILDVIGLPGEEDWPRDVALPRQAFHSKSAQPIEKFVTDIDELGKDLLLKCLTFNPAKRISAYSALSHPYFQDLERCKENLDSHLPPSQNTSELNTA
CDK6/CCND1, sequence (P24385 whole entry partner): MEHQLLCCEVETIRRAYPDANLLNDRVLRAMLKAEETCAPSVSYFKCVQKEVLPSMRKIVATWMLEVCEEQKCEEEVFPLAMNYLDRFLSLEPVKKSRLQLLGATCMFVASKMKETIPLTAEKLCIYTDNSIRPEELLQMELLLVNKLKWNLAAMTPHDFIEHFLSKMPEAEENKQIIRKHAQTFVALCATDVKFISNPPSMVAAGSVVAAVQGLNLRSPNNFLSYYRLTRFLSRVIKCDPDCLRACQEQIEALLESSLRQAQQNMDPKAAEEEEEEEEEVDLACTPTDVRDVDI
CDK4/CCND3, sequence (P11802 whole entry): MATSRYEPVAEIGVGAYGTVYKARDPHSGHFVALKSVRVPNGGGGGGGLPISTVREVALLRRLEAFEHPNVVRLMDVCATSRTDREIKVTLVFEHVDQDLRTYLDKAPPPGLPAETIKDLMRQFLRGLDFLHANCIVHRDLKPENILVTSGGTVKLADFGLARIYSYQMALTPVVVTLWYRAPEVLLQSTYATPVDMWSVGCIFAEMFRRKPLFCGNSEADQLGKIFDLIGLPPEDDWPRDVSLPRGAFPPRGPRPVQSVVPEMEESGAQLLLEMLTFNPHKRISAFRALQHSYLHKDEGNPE
CDK4/CCND3, sequence (P30281 whole entry partner): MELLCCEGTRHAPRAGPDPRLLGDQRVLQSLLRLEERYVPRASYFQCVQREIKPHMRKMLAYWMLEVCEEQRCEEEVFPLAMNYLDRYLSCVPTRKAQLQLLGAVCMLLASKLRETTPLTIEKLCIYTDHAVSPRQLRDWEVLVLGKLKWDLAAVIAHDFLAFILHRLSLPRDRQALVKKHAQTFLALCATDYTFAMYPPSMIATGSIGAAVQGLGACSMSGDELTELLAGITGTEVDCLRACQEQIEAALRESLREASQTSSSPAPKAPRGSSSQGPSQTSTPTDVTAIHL
CDK1/CCNB1, sequence (P06493 whole entry): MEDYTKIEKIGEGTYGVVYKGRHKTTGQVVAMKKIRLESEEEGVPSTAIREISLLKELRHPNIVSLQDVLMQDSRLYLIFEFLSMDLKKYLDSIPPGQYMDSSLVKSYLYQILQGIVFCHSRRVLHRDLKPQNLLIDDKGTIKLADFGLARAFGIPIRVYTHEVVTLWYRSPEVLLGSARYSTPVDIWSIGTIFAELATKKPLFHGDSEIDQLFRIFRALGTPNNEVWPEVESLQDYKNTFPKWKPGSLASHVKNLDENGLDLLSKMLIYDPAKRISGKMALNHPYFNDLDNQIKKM
CDK1/CCNB1, sequence (P14635 whole entry partner): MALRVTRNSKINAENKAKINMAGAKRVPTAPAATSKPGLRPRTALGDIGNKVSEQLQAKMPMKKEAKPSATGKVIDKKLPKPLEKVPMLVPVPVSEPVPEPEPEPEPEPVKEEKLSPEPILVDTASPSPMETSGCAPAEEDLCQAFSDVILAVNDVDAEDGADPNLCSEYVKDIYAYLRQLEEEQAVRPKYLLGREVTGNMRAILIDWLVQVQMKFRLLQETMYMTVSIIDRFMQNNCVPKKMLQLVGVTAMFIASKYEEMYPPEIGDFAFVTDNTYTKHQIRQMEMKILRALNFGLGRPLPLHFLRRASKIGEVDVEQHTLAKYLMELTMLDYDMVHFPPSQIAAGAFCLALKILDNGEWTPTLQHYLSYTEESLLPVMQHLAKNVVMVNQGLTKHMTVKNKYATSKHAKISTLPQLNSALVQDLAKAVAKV

Consider `CC(CCO)N1CCc2cc(-c3nccc4cnc(Nc5ccc(S(C)(=O)=O)cc5)cc34)ccc2C1` (racemic) [Ex 619, 3-(6-(7-((4-(methylsulfonyl)phenyl)amino)-2,6-naphthyridin-1-yl)-3,4-dihydroisoquinolin-2(1H)-yl)butan-1-ol], for which the IC50 in test [1] (setting [5]) is > 250 nM; in test [2] (setting [6]) it was < 25 nM; in test [3] (setting [7]) it was 25 to 250 nM; in test [4] (setting [8]), > 250 nM.

With `CC(O)CN1CCc2cc(-c3nccc4cnc(Nc5ccc(S(C)(=O)=O)cc5)cc34)ccc2C1` (racemic) [Ex 628, 1-(6-(7-((4-(methylsulfonyl)phenyl)amino)-2,6-naphthyridin-1-yl)-3,4-dihydroisoquinolin-2(1H)-yl)propan-2-ol], the IC50 in test [1] (setting [5]) was > 250 nM; in test [2] (setting [6]) it was < 25 nM; in test [3] (setting [7]) it was 25 to 250 nM; in test [4] (setting [9]), 25 to 250 nM.

Regarding `Cn1cc(C2CCN(c3nccc4cnc(Nc5ccc(S(C)(=O)=O)cc5)cc34)C2)cn1` (racemic) [Ex 654, 5-(3-(1-methyl-1H-pyrazol-4-yl)pyrrolidin-1-yl)-N-(4-(methylsulfonyl)phenyl)-2,6-naphthyridin-3-amine], the IC50 in test [1] (setting [5]) is > 250 nM; in test [2] (x = IC50 >250 nM, read-out: CDK2/CCNE IC50 (>250 nM column)), > 250 nM; in test [3] (setting [10]), > 250 nM; in test [4] (setting [8]), > 250 nM.

On to `Cc1c(-c2nccc3cnc(Nc4ccc(S(C)(=O)=O)cc4)cc23)ccc2c1cnn2CC(C)O` (racemic) [Ex 672, 1-(4-methyl-5-(7-((4-(methylsulfonyl)phenyl)amino)-2,6-naphthyridin-1-yl)-1H-indazol-1-yl)propan-2-ol], for which the IC50 in test [1] (x = IC50 25-250 nM, read-out: CDK1/CCNB IC50 (25-250 nM)) was 25 to 250 nM; in test [2] (setting [6]), < 25 nM; in test [3] (setting [7]), 25 to 250 nM; in test [4] (setting [9]), 25 to 250 nM.

Take `Cc1c(-c2nccc3cnc(Nc4ccc(S(C)(=O)=O)cc4)cc23)ccc2nn(CC(C)O)cc12` (racemic) [Ex 675, 1-(4-methyl-5-(7-((4-(methylsulfonyl)phenyl)amino)-2,6-naphthyridin-1-yl)-2H-indazol-2-yl)propan-2-ol]: the IC50 in test [1] (setting [5]) is > 250 nM; in test [2] (x = IC50 25-250 nM, read-out: CDK2/CCNE IC50 (25-250 nM)) it was 25 to 250 nM; in test [3] (setting [10]) it was > 250 nM; in test [4] (setting [8]) it was > 250 nM.

Turning to `Cc1c(-c2nccc3cnc(Nc4ccc(S(=O)(=O)NC5CCCN(CCO)C5)cc4)cc23)ccc2c1cnn2CC(C)(C)O` (racemic) [Ex 760, 4-((5-(1-(2-hydroxy-2-methylpropyl)-4-methyl-1H-indazol-5-yl)-2,6-naphthyridin-3-yl)amino)-N-(1-(2-hydroxyethyl)piperidin-3-yl)benzenesulfonamide], the IC50 is > 250 nM in test [1] (setting [11]), < 25 nM in test [2] (setting [12]), 25 to 250 nM in test [3] (setting [13]) and 25 to 250 nM in test [4] (setting [14]).

In the case of `Cc1c(-c2nccc3cnc(Nc4ccc(S(=O)(=O)NC5CCCN(C)C5)cc4)cc23)ccc2c1cnn2CC(C)(C)O` (racemic) [Ex 761, 4-((5-(1-(2-hydroxy-2-methylpropyl)-4-methyl-1H-indazol-5-yl)-2,6-naphthyridin-3-yl)amino)-N-(1-methylpiperidin-3-yl)benzenesulfonamide], the IC50 is > 250 nM in test [1] (setting [11]), < 25 nM in test [2] (setting [12]), 25 to 250 nM in test [3] (setting [13]) and 25 to 250 nM in test [4] (setting [14]).

Turning to `Cc1c(-c2nccc3cnc(Nc4ccc(S(=O)(=O)NC5CCOC5)cc4)cc23)ccc2c1cnn2CC(C)(C)O` (racemic) [Ex 770, 4-((5-(1-(2-hydroxy-2-methylpropyl)-4-methyl-1H-indazol-5-yl)-2,6-naphthyridin-3-yl)amino)-N-(tetrahydrofuran-3-yl)benzenesulfonamide], the IC50 was > 250 nM in test [1] (setting [11]), < 25 nM in test [2] (setting [12]), 25 to 250 nM in test [3] (setting [13]) and 25 to 250 nM in test [4] (setting [14]).

Turning to `Cc1c(-c2nccc3cnc(Nc4ccc(S(=O)(=O)NC5CCN(C)C5)cc4)cc23)ccc2c1cnn2CC(C)(C)O` (racemic) [Ex 771, 4-((5-(1-(2-hydroxy-2-methylpropyl)-4-methyl-1H-indazol-5-yl)-2,6-naphthyridin-3-yl)amino)-N-(1-methylpyrrolidin-3-yl)benzenesulfonamide], the IC50 was > 250 nM in test [1] (setting [11]), < 25 nM in test [2] (setting [12]), 25 to 250 nM in test [3] (setting [13]) and 25 to 250 nM in test [4] (setting [14]).

For the molecule `Cc1c(-c2nccc3cnc(Nc4ccc(S(=O)(=O)NC5CCNC5)cc4)cc23)ccc2c1cnn2CC(C)(C)O` (racemic) [Ex 791, 4-((5-(1-(2-hydroxy-2-methylpropyl)-4-methyl-1H-indazol-5-yl)-2,6-naphthyridin-3-yl)amino)-N-(pyrrolidin-3-yl)benzenesulfonamide], the IC50 was 25 to 250 nM in test [1] (25-250 nM, read-out: CDK1/CCNB IC50, 25-250 nM); < 25 nM in test [2] (setting [12]); 25 to 250 nM in test [3] (setting [13]); < 25 nM in test [4] (<25 nM, read-out: CDK4/CCND IC50, column <25 nM).

In the case of `Cc1c(-c2nccc3cnc(Nc4ccc(S(=O)(=O)NC5CCCNC5)cc4)cc23)ccc2c1cnn2CC(C)(C)O` (racemic) [Ex 792, 4-((5-(1-(2-hydroxy-2-methylpropyl)-4-methyl-1H-indazol-5-yl)-2,6-naphthyridin-3-yl)amino)-N-(piperidin-3-yl)benzenesulfonamide], the IC50 was > 250 nM in test [1] (setting [11]), < 25 nM in test [2] (setting [12]), 25 to 250 nM in test [3] (setting [13]) and 25 to 250 nM in test [4] (setting [14]).

As for `COc1ccc(C(=O)N2CCC(Nc3cc4c(-c5ccc6c(cnn6CC(C)(C)O)c5C)nccc4cn3)C2)cc1` (racemic) [Ex 884, (3-((5-(1-(2-hydroxy-2-methylpropyl)-4-methyl-1H-indazol-5-yl)-2,6-naphthyridin-3-yl)amino)pyrrolidin-1-yl)(4-methoxyphenyl)methanone], the IC50 in test [1] (setting [11]) was > 250 nM; in test [2] (setting [12]), < 25 nM; in test [3] (setting [15]) it was > 250 nM; in test [4] (setting [16]) it was > 250 nM.

As for `Cc1c(-c2nccc3cnc(NC4CCN(C(=O)c5ccccc5)C4)cc23)ccc2c1cnn2CC(C)(C)O` (racemic) [Ex 885, (3-((5-(1-(2-hydroxy-2-methylpropyl)-4-methyl-1H-indazol-5-yl)-2,6-naphthyridin-3-yl)amino)pyrrolidin-1-yl)(phenyl)methanone], the IC50 in test [1] (setting [11]) is > 250 nM; in test [2] (setting [12]), < 25 nM; in test [3] (setting [15]) it was > 250 nM; in test [4] (setting [16]) it was > 250 nM.

For the molecule `Cc1c(-c2nccc3cnc(NC4CCN(C(=O)c5ccc(Cl)cc5)C4)cc23)ccc2c1cnn2CC(C)(C)O` (racemic) [Ex 903, (4-chlorophenyl)(3-((5-(1-(2-hydroxy-2-methylpropyl)-4-methyl-1H-indazol-5-yl)-2,6-naphthyridin-3-yl)amino)pyrrolidin-1-yl)methanone], the IC50 was > 250 nM in test [1] (setting [11]), < 25 nM in test [2] (setting [12]), > 250 nM in test [3] (setting [15]) and > 250 nM in test [4] (setting [16]).

Regarding `Cc1c(-c2nccc3cnc(NC4CCN(C(=O)c5cccnc5)C4)cc23)ccc2c1cnn2CC(C)(C)O` (racemic) [Ex 904, (3-((5-(1-(2-hydroxy-2-methylpropyl)-4-methyl-1H-indazol-5-yl)-2,6-naphthyridin-3-yl)amino)pyrrolidin-1-yl)(pyridin-3-yl)methanone], the IC50 was > 250 nM in test [1] (setting [11]); 25 to 250 nM in test [2] (25-250 nM, read-out: CDK2/CCNE IC50, 25-250 nM); > 250 nM in test [3] (setting [15]); > 250 nM in test [4] (setting [16]).
